In patent US9096524B2, “Anthelmintic agents and their use” (Intervet International B.V., priority 2009, dated 2015):
Read-outs that look alike come from different tables or passages of the source.

Key:
Haemonchus contortus = assay: Efficacy against Haemonchus contortus in jirds; format: in vivo, jirds (Meriones unguiculatus); conditions: 72 h, read-out: % Reduction in H.
Experimental: Anthelmintic effects of compounds of this invention were tested in vivo using Haemonchus contuortus in jirds (Meriones unguiculatus). The jirds were orally infected with approximately 750-3,000 third-stage larvae of Haemonchus contortus. Ten days after infection, the jirds in the treatment groups were treated once orally or subcutaneously at a dose of 2, 10, and/or 50 mg per kg bodyweight. Three days after treatment, the jirds were necropsied, and the larvae burden in the stomach is determined. The efficacy is defined as the reduction of the mean larvae count in the jirds of the treatment groups in comparison to the infected jirds in the untreated negative control group.

[1] = tested on: A. galli (intestinal roundworm of chicken) larval stage 3; O. dentatum (nodular worm of swine) larval stages 3 and 4; assay: Activity against Ascaridia galli and Oesophagostomum dentatum larvae in vitro (minimum effective concentration); format: cell-based
[2] = jirds, 50 mg/kg, oral, single treatment, larvae burden in stomach 3 days after treatment
[3] = sc, jirds, 50 mg/kg, subcutaneous, single treatment, larvae burden in stomach 3 days after treatment
[4] = read-out: MEC (minimum effective concentration) against one or more of the tested nematodes, in vitro, one or more of A. galli L3, O. dentatum L3, L4, threshold 1 μM
[5] = read-out: MEC (minimum effective concentration) against one or more of the tested nematodes, in vitro, one or more of A. galli L3, O. dentatum L3, L4, threshold 7 μM
[6] = read-out: MEC (minimum effective concentration) against two or more of the tested nematodes, in vitro, two or more of A. galli L3, O. dentatum L3, L4, threshold 1 μM
[7] = jirds, 10 mg/kg, oral, single treatment, larvae burden in stomach 3 days after treatment
[8] = sc, jirds, 10 mg/kg, subcutaneous, single treatment, larvae burden in stomach 3 days after treatment
[9] = in vitro, one or more of A. galli L3, O. dentatum L3, L4, threshold 1 μM, read-out: MEC (minimum effective concentration) against one or more of the tested nematodes
[10] = in vitro, one or more of A. galli L3, O. dentatum L3, L4, threshold 7 μM, read-out: MEC (minimum effective concentration) against one or more of the tested nematodes
[11] = in vitro, two or more of A. galli L3, O. dentatum L3, L4, threshold 1 μM, read-out: MEC (minimum effective concentration) against two or more of the tested nematodes

| Structure (SMILES) | inhibition in vivo at 50 mg/kg (Haemonchus contortus; [2]) [%] | inhibition in vivo at 50 mg/kg (Haemonchus contortus; [3]) [%] | minimal effective concentration [1, 4] [µM] | minimal effective concentration [1, 5] [µM] | minimal effective concentration [1, 6] [µM] | inhibition in vivo at 50 mg/kg (Haemonchus contortus; po) [%] | inhibition in vivo at 50 mg/kg (Haemonchus contortus; sc) [%] | further results |
| --- | --- | --- | --- | --- | --- | --- | --- | --- |
| O=C(NCC1CCN(c2ccc(C(F)(F)F)cc2)CC1)N1CCC(Nc2ccc([N+](=O)[O-])c(C(F)(F)F)c2)CC1 [Example 539] | 82 | 73 |  |  |  |  |  |  |
| O=C(CCN1CCN(c2nnc(C(F)(F)F)s2)CC1)N1CCC(Nc2ccc([N+](=O)[O-])c(C(F)(F)F)c2)CC1 [Example 124, 1-[4-(4-nitro-3-trifluoromethyl-phenylamino)-piperidin-1-yl]-3-[4-(5-trifluoromethyl-1,3,4-thiadiazol-2-yl)-piperazin-1-yl]-propan-1-one] |  |  | < 1 | < 7 | < 1 |  |  | inhibition in vivo at 10 mg/kg (Haemonchus contortus; po): 47%; inhibition in vivo at 10 mg/kg (Haemonchus contortus; sc): 75% |
| O=C(CCCN1CCN(c2ccc(C(F)(F)F)cn2)CC1)N1CCC(Nc2ccc([N+](=O)[O-])c(C(F)(F)F)c2)CC1 [Example 151, 1-[4-(4-nitro-3-trifluoromethyl-phenylamino)-piperidin-1-yl]-4-[4-(5-trifluoromethyl-pyridin-2-yl)-piperazin-1-yl]-butan-1-one] |  |  | < 1 | < 7 | < 1 |  |  | inhibition in vivo at 10 mg/kg (Haemonchus contortus; po): 88%; inhibition in vivo at 10 mg/kg (Haemonchus contortus; sc): 84% |
| CC(C)COc1cc(OC2CCN(C(=O)CCN3CCC(c4ccc(C(C)(C)C)cc4)CC3)CC2)ccc1[N+](=O)[O-] [Example 533] | 83 | 74 |  |  |  |  |  |  |
| Cc1ccc(N2CCC(CN(C)C(=O)N3CCC(Nc4ccc([N+](=O)[O-])c(C(F)(F)F)c4)CC3)CC2)cc1 [Example 566] | 83 | 93 |  |  |  |  |  |  |
| O=C(COC1CCN(c2ccc(C(F)(F)F)cc2)CC1)N1CCC(Nc2ccc([N+](=O)[O-])c(C(F)(F)F)c2)CC1 [Example 12, 1-[4-(4-nitro-3-trifluoromethyl-phenylamino)-piperidin-1-yl]-2-[1-(4-trifluoromethyl-phenyl)-piperidin-4-yloxy]-ethanone] |  |  | < 1 | < 7 | < 1 | 96 | 100 |  |
| O=C(CCCC1CCN(c2ccc(C(F)(F)F)cc2)CC1)N1CCC(Nc2ccc([N+](=O)[O-])c(C(F)(F)F)c2)CC1 [Example 134, 1-[4-(4-nitro-3-trifluoromethyl-phenylamino)-piperidin-1-yl]-4-[1-(4-trifluoromethyl-phenyl)-piperidin-4-yl]-butan-1-one] |  |  | < 1 | < 7 | < 1 |  |  | inhibition in vivo at 10 mg/kg (Haemonchus contortus; po): 99%; inhibition in vivo at 10 mg/kg (Haemonchus contortus; sc): 99% |
| O=C(CCCN1CCN(c2ccc(C(F)(F)F)cc2)CC1)N1CCC(Nc2ccc(Cl)c(SC(F)(F)F)c2)CC1 [Example 17, 1-[4-(4-chloro-3-trifluoromethylsulfanyl-phenylamino)-piperidin-1-yl]-4-[4-(4-trifluoromethyl-phenyl)-piperazin-1-yl]-butan-1-one] |  |  | < 1 | < 7 | < 1 | 100 | 96 |  |
| O=C(CCN1CCN(c2ccc(OCc3ccccc3)cc2)CC1)N1CCC(Nc2ccc([N+](=O)[O-])c(C(F)(F)F)c2)CC1 [Example 23, 3-[4-(4-benzyloxy-phenyl)-piperazin-1-yl]-1-[4-(4-nitro-3-trifluoromethyl-phenylamino)-piperidin-1-yl]-propan-1-one] |  |  | < 1 | < 7 | < 1 | 66 | 92 |  |
| C[C@@H](CN1CCN(c2ccc(C(F)(F)F)cc2)CC1)C(=O)N1CCC(Nc2ccc([N+](=O)[O-])c(C(F)(F)F)c2)CC1 [Example 68, (S)-2-methyl-1-[4-(4-nitro-3-trifluoromethyl-phenylamino)-piperidin-1-yl]-3-[4-(4-trifluoromethyl-phenyl)-piperazin-1-yl]-propan-1-one] |  |  |  |  |  |  |  | inhibition in vivo at 10 mg/kg (Haemonchus contortus; [7]): 99%; inhibition in vivo at 10 mg/kg (Haemonchus contortus; [8]): 99%; minimal effective concentration [1, 9]: < 1 µM; minimal effective concentration [1, 10]: < 7 µM; minimal effective concentration [1, 11]: < 1 µM |
| CC(C)(C)c1ccc(N2CCN(CCCC(=O)N3CCC(Nc4ccc([N+](=O)[O-])c(C(F)(F)F)c4)CC3)CC2)cc1 [Example 90, 4-[4-(4-tert-butyl-phenyl)-piperazin-1-yl]-1-[4-(4-nitro-3-trifluoromethyl-phenylamino)-piperidin-1-yl]-butan-1-one] |  |  |  |  |  |  |  | inhibition in vivo at 10 mg/kg (Haemonchus contortus; po): 46%; inhibition in vivo at 10 mg/kg (Haemonchus contortus; sc): 42% |
| Cn1nnc(-c2ccc(NC3CCN(C(=O)CCN4CCN(c5ccc(C(C)(C)C)cc5)CC4)CC3)cc2)n1 [Example 444] | 78 | 52 |  |  |  |  |  | minimal effective concentration [1, 9]: < 1 µM; minimal effective concentration [1, 10]: < 7 µM; minimal effective concentration [1, 11]: < 1 µM |
| CS(=O)(=O)c1ccc(NC2CCN(C(=O)CCCN3CCN(c4ccc(C(F)(F)F)cc4)CC3)CC2)cc1C(F)(F)F [Example 30, 1-[4-(4-methanesulfonyl-3-trifluoromethyl-phenylamino)-piperidin-1-yl]-4-[4-(4-trifluoromethyl-phenyl)-piperazin-1-yl]-butan-1-one] |  |  | < 1 | < 7 | < 1 | 62 | 69 |  |
| COc1cc(NC2CCN(C(=O)CCN3CCN(c4ccc(OCc5ccc(C(F)(F)F)cc5)cc4)CC3)CC2)ccc1[N+](=O)[O-] [Example 40, 1-[4-(3-methoxy-4-nitro-phenylamino)-piperidin-1-yl]-3-{4-[4-(4-trifluoromethyl-benzyloxy)-phenyl]-piperazin-1-yl}-propan-1-one] |  |  | < 1 | < 7 | < 1 | 0 | 74 |  |
| CN(CC1CCN(c2ccccc2)CC1)C(=O)N1CCC(Nc2ccc([N+](=O)[O-])c(C(F)(F)F)c2)CC1 [Example 565] | 70 | 90 |  |  |  |  |  |  |
| CCCc1ccc(C2CCN(CCC(=O)N3CCC(Oc4ccc([N+](=O)[O-])c(OCC(C)C)c4)CC3)CC2)cc1 [Example 532] | 90 | 99 |  |  |  |  |  |  |
| N#Cc1ccc(NC2CCN(C(=O)CCCN3CCN(c4ccc(C(F)(F)F)cn4)CC3)CC2)cc1C(F)(F)F [Example 157, 2-trifluoromethyl-4-(1-{4-[4-(5-trifluoromethyl-pyridin-2-yl)-piperazin-1-yl]-butyryl}-piperidin-4-ylamino)-benzonitrile] |  |  |  |  |  |  |  | inhibition in vivo at 10 mg/kg (Haemonchus contortus; [7]): 96%; inhibition in vivo at 10 mg/kg (Haemonchus contortus; [8]): 93% |
| CC(C)(C)c1ccc(N2CCC(OCC(=O)N3CCC(Nc4ccc([N+](=O)[O-])c(C(F)(F)F)c4)CC3)CC2)cc1 [Example 416] | 88 | 98 |  |  |  |  |  |  |
| O=C(CCN1CCN(c2ccc(OCc3ccccc3)cc2)CC1)N1CCC(Oc2ccc([N+](=O)[O-])c(C(F)(F)F)c2)CC1 [Example 58, 3-[4-(4-benzyloxy-phenyl)-piperazin-1-yl]-1-[4-(4-nitro-3-trifluoromethyl-phenoxy)-piperidin-1-yl]-propan-1-one] |  |  |  |  |  | 0 | 59 |  |
| CC(CN1CCN(c2ccc(C(F)(F)F)cc2)CC1)C(=O)N1CCC(Nc2ccc(C#N)c(C(F)(F)F)c2)CC1 (stereo not shown) [Example 92, 4-(1-{2-methyl-3-[4-(4-trifluoromethyl-phenyl)-piperazin-1-yl]-propionyl}-piperidin-4-ylamino)-2-trifluoromethyl-benzonitrile] | 100 | 91 |  |  |  |  |  |  |
| CCOc1cc(NC2CCN(C(=O)CCN3CCC(c4ccc(Cl)cc4)CC3)CC2)ccc1[N+](=O)[O-] [Example 414] | 0 | 98 |  |  |  |  |  |  |
| O=C(CCCN1CCN(c2ccc(C(F)(F)F)cc2)CC1)N1CCC(Nc2ccc([N+](=O)[O-])c(C(F)(F)F)c2)CC1 [Example 89, 1-[4-(4-nitro-3-trifluoromethyl-phenylamino)-piperidin-1-yl]-4-[4-(4-trifluoromethyl-phenyl)-piperazin-1-yl]-butan-1-one] |  |  |  |  |  |  |  | inhibition in vivo at 10 mg/kg (Haemonchus contortus; po): 99%; inhibition in vivo at 10 mg/kg (Haemonchus contortus; sc): 98% |
| CC(CN1CCN(c2ccc(Cl)cc2)CC1)C(=O)N1CCC(Nc2ccc(C#N)c(C(F)(F)F)c2)CC1 (stereo not shown) [Example 581] |  |  |  |  |  | 68 | 10 |  |
